Results published in the NIST ThermoML archive (doi:10.1016/j.jct.2016.11.009).

Details: Gas, Buoyancy - hydrostatic balance with magnetic suspension - one sinker

N#N [nitrogen]
Details | mass density [kg/m3]
304.03 K, 17990 kPa | 190.64
304.1 K, 16877 kPa | 180.004
304.11 K, 6796 kPa | 75.316
304.11 K, 12948 kPa | 140.851
304.12 K, 5782 kPa | 64.151
304.13 K, 8812 kPa | 97.213
304.14 K, 4379 kPa | 48.633
304.15 K, 2926 kPa | 32.502
304.15 K, 7820 kPa | 86.489
304.15 K, 11901 kPa | 129.994
304.15 K, 15984 kPa | 171.278
304.16 K, 10861 kPa | 119.075
304.16 K, 14927 kPa | 160.84
304.17 K, 13944 kPa | 150.964
304.23 K, 9837 kPa | 108.209
304.55 K, 2607 kPa | 28.885
304.66 K, 3534 kPa | 39.15
304.66 K, 7983 kPa | 88.017
304.69 K, 7136 kPa | 78.822
304.73 K, 16296 kPa | 173.901
304.75 K, 8937 kPa | 98.306
304.75 K, 12245 kPa | 133.207
304.77 K, 4983 kPa | 55.145
304.77 K, 14270 kPa | 153.864
304.78 K, 10988 kPa | 120.097
304.8 K, 3016 kPa | 33.394
304.82 K, 5885 kPa | 65.065
304.83 K, 8012 kPa | 88.26
304.83 K, 10043 kPa | 110.076
304.88 K, 3013 kPa | 33.353
304.88 K, 18305 kPa | 192.939
304.89 K, 6933 kPa | 76.521
305.04 K, 4986 kPa | 55.132
305.17 K, 4987 kPa | 55.12
